Data from ChEMBL document CHEMBL2401615, “Peptide backbone replacement of hepatitis C virus NS3 serine protease C-terminal cleavage product analogs: discovery of potent succinamide inhibitors” (Bioorg Med Chem Lett, 2013).

System: not listed separately
Assay: Inhibition of Hepatitis C virus NS3 protease
Design: species or system Hepacivirus hominis

Row | SMILES | IC50 [nM]
1 | C=C[C@@H]1C[C@]1(NC(=O)[C@@H]1C[C@@H](Oc2nccc3cc(OC)ccc23)CN1C(=O)[C@@H](CC(=O)NC(C)(C)C)C(C)(C)C)C(=O)NS(=O)(=O)C1CC1 | 8.7
2 | C=C[C@@H]1C[C@]1(NC(=O)[C@@H]1C[C@@H](Oc2cc(-c3csc(NC(C)=O)n3)nc3cc(OC)ccc23)CN1C(=O)[C@@H](CC(=O)NC1CCCC1)C(C)(C)C)C(=O)O | 23
3 | C=C[C@@H]1C[C@]1(NC(=O)[C@@H]1C[C@@H](Oc2cc(-c3csc(NC(C)=O)n3)nc3cc(OC)ccc23)CN1C(=O)[C@@H](CC(=O)Nc1ccccc1)C(C)(C)C)C(=O)O | 13
4 | C=C[C@@H]1C[C@]1(NC(=O)[C@@H]1C[C@@H](Oc2cc(-c3csc(NC(C)=O)n3)nc3cc(OC)ccc23)CN1C(=O)[C@@H](NC(=O)OC(C)(C)C)C(C)(C)C)C(=O)O | 13
5 | C=C[C@@H]1C[C@]1(NC(=O)[C@@H]1C[C@@H](Oc2nccc3cc(OC)ccc23)CN1C(=O)[C@@H](NC(=O)OC(C)(C)C)C(C)(C)C)C(=O)NS(=O)(=O)C1CC1 | 2

Results, then the compound that gave them:

Row | IC50 [nM] | SMILES
6 | 140 | C=C[C@@H]1C[C@]1(NC(=O)[C@@H]1C[C@@H](Oc2cc(-c3csc(NC(C)=O)n3)nc3cc(OC)ccc23)CN1C(=O)[C@@H](OC(=O)NC(C)(C)C)C(C)(C)C)C(=O)O
7 | 53 | C=C[C@@H]1C[C@]1(NC(=O)[C@@H]1C[C@@H](Oc2cc(-c3csc(NC(C)=O)n3)nc3cc(OC)ccc23)CN1C(=O)[C@@H](CC(=O)NC(C)(C)C)C(C)(C)C)C(=O)O
8 | 2.6 | C=C[C@@H]1C[C@]1(NC(=O)[C@@H]1C[C@@H](Oc2cc(-c3csc(NC(C)=O)n3)nc3cc(OC)ccc23)CN1C(=O)[C@@H](NC(=O)NC(C)(C)C)C(C)(C)C)C(=O)O

System: Hepatitis C virus
Assay: Antiviral activity against Hepatitis C virus
Type: functional, organism-based, Hepacivirus hominis

Row | EC50 [nM] | SMILES
9 | 130 | C=C[C@@H]1C[C@]1(NC(=O)[C@@H]1C[C@@H](Oc2nccc3cc(OC)ccc23)CN1C(=O)[C@@H](CC(=O)NC(C)(C)C)C(C)(C)C)C(=O)NS(=O)(=O)C1CC1
10 | 3 | C=C[C@@H]1C[C@]1(NC(=O)[C@@H]1C[C@@H](Oc2nccc3cc(OC)ccc23)CN1C(=O)[C@@H](NC(=O)OC(C)(C)C)C(C)(C)C)C(=O)NS(=O)(=O)C1CC1
